Laboratory results reported in publication PMC10557616 (bioRxiv, 2023).

How the values were obtained:
Type in all cases: biochemical
Conditions in all cases: phosphocreatine as phosphate donor
[1] = target: T1, CKM (Homo sapiens, UniProt P06732); assay: uHPLC-MS detection of ATP
[2] = target: T2, creatine kinase U-type (CKMT1) (Homo sapiens, UniProt P12532); assay: uHPLC-MS detection of ATP
[3] = target: T1, CKM; assay: uHPLC-MS detection of TFV-DP
[4] = target: T2, creatine kinase U-type (CKMT1); assay: uHPLC-MS detection of TFV-DP

T1 sequence (P06732 whole entry): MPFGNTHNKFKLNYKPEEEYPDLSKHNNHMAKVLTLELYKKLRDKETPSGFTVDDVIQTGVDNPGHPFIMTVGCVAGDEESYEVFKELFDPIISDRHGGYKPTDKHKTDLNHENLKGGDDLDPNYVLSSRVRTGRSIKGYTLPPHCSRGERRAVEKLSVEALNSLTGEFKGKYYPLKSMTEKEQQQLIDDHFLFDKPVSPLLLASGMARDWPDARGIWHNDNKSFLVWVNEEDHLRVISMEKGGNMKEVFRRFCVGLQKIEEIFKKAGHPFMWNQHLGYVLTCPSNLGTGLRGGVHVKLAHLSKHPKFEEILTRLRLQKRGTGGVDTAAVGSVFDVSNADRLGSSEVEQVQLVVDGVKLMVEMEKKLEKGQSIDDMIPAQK

| SMILES | uHPLC-MS detection of ATP [1] | uHPLC-MS detection of ATP [2] | uHPLC-MS detection of TFV-DP [3] | uHPLC-MS detection of TFV-DP [4] |
| --- | --- | --- | --- | --- |
| Nc1ncnc2c1ncn2[C@@H]1O[C@H](COP(=O)(O)OP(=O)(O)O)[C@@H](O)[C@H]1O [ADP] | the proteins were incubated with phosphocreatine and ADP and ATP was detected by uHPLC-MS | the proteins were incubated with phosphocreatine and ADP and ATP was detected by uHPLC-MS |  |  |
| C[C@H](Cn1cnc2c(N)ncnc21)OCP(=O)(O)OP(=O)(O)O [TFV-MP] |  |  | no significant differences in TFV-DP levels between the CKM, CKB, or CKMT1 catalyzed reactions | no significant differences in TFV-DP levels between the CKM, CKB, or CKMT1 catalyzed reactions |
